Source: DBAASP
≈ marks a conversion by molar mass, not a printed value. One block for each compound: values may come before it.

Key:
Assay in all cases: ≥ marks a high value that may be exact or a test limit, other limits are often not marked, values filed in µg/mL are converted to µM
Bacillus subtilis = tested on: Bacillus subtilis
Acinetobacter baumannii = tested on: Acinetobacter baumannii
[1] = tested on: Escherichia coli ATCC 25922
[2] = tested on: Klebsiella pneumoniae ATCC 700603
[3] = tested on: Pseudomonas aeruginosa ATCC 9027
[4] = tested on: Staphylococcus aureus ATCC 25923
Candida albicans = tested on: Candida albicans
Escherichia coli = tested on: Escherichia coli
Staphylococcus aureus = tested on: Staphylococcus aureus
[5] = tested on: Acinetobacter baumannii ATCC 19606
Bacillus cereus = tested on: Bacillus cereus
Escherichia coli UB1005 = tested on: Escherichia coli UB1005
[6] = tested on: Salmonella enterica subsp. enterica serovar Typhimurium C77-31
[7] = tested on: Staphylococcus aureus ATCC 29213
[8] = tested on: Staphylococcus epidermidis ATCC 12228
[9] = tested on: Escherichia coli DH5alpha
[10] = tested on: Pseudomonas aeruginosa ATCC 27853

Compound: CC(C)C[C@H](NC(=O)[C@H](CCC(=O)O)NC(=O)[C@H](CC(C)C)NC(=O)[C@H](CO)NC(=O)[C@H](CC(=O)O)NC(=O)[C@H](Cc1ccc(O)cc1)NC(=O)[C@H](CCCN=C(N)N)NC(=O)[C@H](Cc1ccc(O)cc1)NC(=O)CNC(=O)[C@H](Cc1ccccc1)NC(=O)[C@H](CCCCN)NC(=O)[C@H](CCCCN)NC(=O)[C@H](Cc1ccc(O)cc1)NC(=O)[C@H](CC(=O)O)NC(=O)[C@H](Cc1ccccc1)NC(=O)[C@@H](NC(=O)[C@@H](N)CC(=O)O)[C@@H](C)O)C(=O)N[C@@H](CCC(=O)O)C(=O)NCC(=O)N[C@@H](CCCN=C(N)N)C(=O)O [DTFDYKKFGYRYDSLELEGR]
MIC (Bacillus subtilis): 0.548 µM (≈ 1.37 µg/mL)

Compound: CC(C)C[C@H](NC(=O)[C@H](CCCCN)NC(=O)[C@H](CC(C)C)NC(=O)[C@H](C)NC(=O)[C@H](CC(C)C)NC(=O)[C@H](CCCCN)NC(=O)[C@H](CCCCN)NC(=O)[C@H](CC(C)C)NC(=O)[C@H](CC(C)C)NC(=O)[C@H](CCCCN)NC(=O)[C@H](Cc1c[nH]c2ccccc12)NC(=O)[C@@H](NC(=O)[C@H](CC(C)C)NC(=O)[C@H](CCCCN)NC(=O)[C@@H](N)Cc1ccccc1)C(C)C)C(=O)O [FKLVWKLLKKLALKL]
MIC (Acinetobacter baumannii): ≥ 64 µM
MIC [1]: > 64 µM
MIC [2]: 64 µM (≈ 118 µg/mL)
MIC [3]: > 64 µM
MIC [4]: 32 µM (≈ 58.9 µg/mL)

Compound: CC(C)C[C@H](NC(=O)[C@@H](N)Cc1ccccc1)C(=O)N1CCC[C@H]1C(=O)N1CCC[C@H]1C(=O)N[C@@H](CO)C(=O)N1CCC[C@H]1C(=O)N[C@@H](Cc1c[nH]c2ccccc12)C(=O)N[C@@H](CCCCN)C(=O)N[C@@H](CCC(=O)O)C(=O)N[C@H](C(=O)N[C@@H](Cc1ccccc1)C(=O)N[C@@H](CCCN=C(N)N)C(=O)N[C@H](C(=O)N[C@@H](CO)C(=O)O)[C@@H](C)O)[C@@H](C)O [FLPPSPWKETFRTS]
MIC (Bacillus subtilis): ≥ 50.2 µM
MIC (Candida albicans): 12.6 µM (≈ 21.3 µg/mL)
MIC (Escherichia coli): 25.1 µM (≈ 42.5 µg/mL)
MIC (Staphylococcus aureus): 12.6 µM (≈ 21.3 µg/mL)

Compound: CC[C@H](C)[C@H](NC(=O)[C@H](CCCNC(=N)N)NC(=O)[C@@H](NC(=O)[C@@H](NC(=O)[C@@H]1CCCN1C(=O)[C@@H](NC(=O)[C@@H](NC(=O)[C@@H](NC(=O)[C@@H]1CCCN1C(=O)CNC(=O)[C@H](Cc1ccc(O)cc1)NC(=O)[C@H](CCCCN)NC(=O)[C@H](CCCCN)NC(=O)[C@H](Cc1c[nH]c2ccccc12)NC(=O)[C@H](C)NC(=O)[C@H](CCCNC(=N)N)NC(=O)[C@H](CC(C)C)NC(=O)[C@@H](NC(=O)[C@H](CCCCN)NC(=O)[C@H](CCCNC(=N)N)NC(=O)CNC(=O)[C@H](CC(C)C)NC(=O)[C@H](CO)NC(=O)[C@H](CCCNC(=N)N)NC(=O)[C@H](CC(C)C)NC(=O)CNC(=O)CN)[C@@H](C)CC)[C@@H](C)CC)[C@@H](C)CC)C(C)C)[C@@H](C)CC)[C@@H](C)CC)C(N)=O [GGLRSLGRKILRAWKKYGPIIVPIIRI]
MIC [5]: 1.63 µM (≈ 5 µg/mL)
MIC (Acinetobacter baumannii): 2.3 µM (≈ 7.07 µg/mL)

Compound: CC[C@H](C)[C@H](NC(=O)CN)C(=O)N[C@@H](Cc1ccccc1)C(=O)NCC(=O)N[C@@H](CCCCN)C(=O)N[C@H](C(=O)N[C@@H](CC(C)C)C(=O)NCC(=O)N[C@H](C(=O)NCC(=O)N[C@@H](CCCCN)C(=O)N[C@@H](CCCCN)C(=O)N[C@H](C(=O)N[C@@H](CC(C)C)C(=O)N[C@H]1CSSC[C@@H](C(=O)O)NC(=O)[C@H](C(C)C)NC(=O)CNC(=O)[C@H](CO)NC(=O)[C@H](CC(C)C)NC(=O)CNC1=O)C(C)C)C(C)C)[C@@H](C)CC [GIFGKILGVGKKVLCGLSGVC]
MIC (Bacillus subtilis): 2.88 µM (≈ 5.89 µg/mL)
MIC (Candida albicans): 5.76 µM (≈ 11.8 µg/mL)
MIC (Escherichia coli): 11.5 µM (≈ 23.6 µg/mL)
MIC (Staphylococcus aureus): 2.88 µM (≈ 5.89 µg/mL)

Compound: CC[C@H](C)[C@H](NC(=O)[C@H](CCCCN)NC(=O)[C@H](CCCCN)NC(=O)[C@@H](NC(=O)[C@H](CC(C)C)NC(=O)[C@H](CC(C)C)NC(=O)[C@H](CCCCN)NC(=O)CN)C(C)C)C(=O)N[C@H](C(=O)N[C@@H](CO)C(=O)N[C@@H](CC(C)C)C(=O)N[C@H](C(=O)N[C@@H](CCCN=C(N)N)C(=O)N[C@@H](CO)C(=O)N[C@@H](C)C(N)=O)C(C)C)C(C)C [GKLLVKKIVSLVRSA]
MIC (Acinetobacter baumannii): 25 µM (≈ 40.3 µg/mL)
MIC [1]: > 25 µM
MIC [2]: > 25 µM
MIC [3]: > 25 µM
MIC [4]: > 25 µM

Compound: CC[C@H](C)[C@H](NC(=O)[C@H](CO)NC(=O)[C@H](CCC(N)=O)NC(=O)[C@H](CC(C)C)NC(=O)[C@H](C)NC(=O)[C@H](CC(=O)O)NC(=O)[C@H](CCCCN)NC(=O)[C@H](CCCCN)NC(=O)[C@H](CC(C)C)NC(=O)CN)C(=O)N[C@H](C(=O)N[C@@H](CCCCN)C(=O)N[C@@H](CCCCN)C(=O)N[C@@H](C)C(=O)N[C@@H](CCC(N)=O)C(=O)N[C@@H](CC(C)C)C(=O)N[C@@H](C)C(=O)N[C@@H](C)C(=O)N[C@@H](CCSC)C(=O)NCC(=O)O)C(C)C [GLKKDALQSIVKKAQLAAMG]
MIC (Bacillus cereus): ≥ 124 µM
MIC (Escherichia coli): > 124 µM

Second part, the compound after the results:

MIC [1]: 16 µM (≈ 47.2 µg/mL)
MIC (Escherichia coli UB1005): 16 µM (≈ 47.2 µg/mL)
MIC [6]: ≥ 128 µM
MIC [4]: 128 µM (≈ 378 µg/mL)
MIC [7]: 128 µM (≈ 378 µg/mL)
MIC [8]: 128 µM (≈ 378 µg/mL)
Compound: CC[C@H](C)[C@H](NC(=O)[C@H](C)NC(=O)[C@H](CCCCN)NC(=O)[C@H](CC(C)C)NC(=O)[C@@H](NC(=O)[C@H](CCCCN)NC(=O)CNC(=O)[C@@H](NC(=O)[C@H](CCCCN)NC(=O)[C@H](CCCCN)NC(=O)[C@H](CC(C)C)NC(=O)[C@H](CCCN=C(N)N)NC(=O)[C@H](CCCCN)NC(=O)[C@H](CCCN=C(N)N)NC(=O)[C@@H](NC(=O)[C@H](CCCCN)NC(=O)[C@H](CCCCN)NC(=O)[C@H](CCCN=C(N)N)NC(=O)[C@H](CC(C)C)NC(=O)[C@H](CCCN=C(N)N)NC(=O)[C@H](CCCN=C(N)N)NC(=O)[C@H](Cc1ccccc1)NC(=O)[C@H](CCCN=C(N)N)NC(=O)CN)[C@@H](C)O)[C@@H](C)CC)C(C)C)C(N)=O [GRFRRLRKKTRKRLKKIGKVLKAI]

MIC (Bacillus cereus): ≥ 134 µM
MIC (Escherichia coli): > 134 µM
Compound: C[C@H](NC(=O)[C@@H]1CCCN1C(=O)CNC(=O)[C@H](CO)NC(=O)[C@H](CCCN=C(N)N)NC(=O)CNC(=O)[C@@H](NC(=O)[C@@H](N)Cc1cnc[nH]1)[C@@H](C)O)C(=O)N[C@H](C(=O)NCC(=O)N[C@@H](Cc1cnc[nH]1)C(=O)N[C@@H](CO)C(=O)NCC(=O)N[C@@H](Cc1cnc[nH]1)C(=O)N[C@@H](CO)C(=O)N[C@@H](CO)C(=O)N[C@H](C(=O)N[C@@H](Cc1cnc[nH]1)C(=O)NCC(=O)N[C@@H](CO)C(=O)O)[C@@H](C)O)[C@@H](C)O [HTGRSGPATGHSGHSSTHGS]

MIC (Bacillus subtilis): ≥ 100 µM
MIC (Escherichia coli): 100 µM (≈ 148 µg/mL)
Compound: CC[C@H](C)[C@H](N)C(=O)N[C@@H](CC(N)=O)C(=O)N[C@@H](Cc1c[nH]c2ccccc12)C(=O)N[C@@H](CCCCN)C(=O)N[C@@H](CCCCN)C(=O)N[C@H](C(=O)N[C@@H](C)C(=O)N[C@@H](CO)C(=O)N[C@H](C(=O)NCC(=O)N[C@@H](CCCCN)C(=O)N[C@@H](CCC(=O)O)C(=O)N[C@H](C(N)=O)C(C)C)[C@@H](C)CC)[C@@H](C)CC [INWKKIASIGKEV]

MIC (Bacillus cereus): ≥ 119 µM
MIC (Escherichia coli): > 119 µM
Compound: CC[C@H](C)[C@H](NC(=O)[C@H](CCSC)NC(=O)[C@@H](NC(=O)[C@H](CCCCN)NC(=O)[C@H](CO)NC(=O)CNC(=O)[C@@H](NC(=O)[C@@H](NC(=O)[C@H](CCCCN)NC(=O)[C@@H](NC(=O)[C@@H]1CCCN1C(=O)[C@H](CO)NC(=O)[C@H](CCCCN)NC(=O)[C@H](CC(C)C)NC(=O)[C@@H]1CCCN1C(=O)[C@@H](NC(=O)[C@H](CCCN=C(N)N)NC(=O)[C@@H](N)CO)C(C)C)C(C)C)[C@@H](C)CC)C(C)C)C(C)C)C(=O)N[C@@H](Cc1ccccc1)C(=O)N[C@@H](C)C(=O)O [SRVPLKSPVKIVGSKVMIFA]

MIC (Bacillus cereus): ≥ 128 µM
MIC (Escherichia coli): > 128 µM
Compound: CC[C@H](C)[C@H](NC(=O)[C@@H](NC(=O)[C@@H](NC(=O)[C@H](CO)NC(=O)[C@@H]1CCCN1C(=O)[C@H](CCCCN)NC(=O)CNC(=O)CNC(=O)[C@H](CCCCN)NC(=O)[C@@H](NC(=O)[C@H](CO)NC(=O)[C@H](Cc1ccccc1)NC(=O)[C@@H](N)C(C)C)C(C)C)C(C)C)C(C)C)C(=O)N[C@@H](CCCCN)C(=O)N[C@H](C(=O)N[C@H](C(=O)N[C@H](C(=O)N[C@@H](C)C(=O)N[C@@H](CO)C(=O)N[C@H](C(=O)O)[C@@H](C)O)C(C)C)C(C)C)C(C)C [VFSVKGGKPSVVIKVVVAST]

MIC (Bacillus subtilis): 3.56 µM (≈ 6 µg/mL)
MIC [9]: 3.56 µM (≈ 6 µg/mL)
MIC [10]: 8.9 µM (≈ 15 µg/mL)
MIC [4]: 1.78 µM (≈ 3 µg/mL)
Compound: CC[C@H](C)[C@H](NC(=O)[C@H](Cc1ccccc1)NC(=O)[C@@H](NC(=O)[C@H](Cc1ccc(O)cc1)NC(=O)[C@H](CCCN=C(N)N)NC(=O)[C@H](CCCCN)NC(=O)[C@H](CCCN=C(N)N)NC(=O)[C@H](CCCCN)NC(=O)[C@H](Cc1c[nH]c2ccccc12)NC(=O)[C@H](CC(C)C)NC(=O)[C@@H](NC(=O)[C@@H](N)Cc1ccc(O)cc1)C(C)C)[C@@H](C)CC)C(=O)O [YVLWKRKRYIFI]
